Patent publication US20060069132A1, “Azolecarboxamide herbicides” (priority 2004, published 2006)
Where two headings read alike, the source gives them in different places.

Assays:
[1] = system: woolly cupgrass; assay: Test C pre-/postemergence herbicide test; format: in vivo, Eriochloa villosa
In short: (§1)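 Emerged plants at the 1- to 4-leaf stage (2–18 cm), or freshly planted seeds, received test chemicals in a non-phytotoxic solvent mixture with surfactant. Response was visually scored against controls after 12 to 14 days in the greenhouse, on a 0 (no effect) to 100 (complete control) scale.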

[2] = system: large crabgrass; assay: Test A pre-/postemergence herbicide test; format: in vivo, Digitaria sanguinalis; settings: Digitaria sanguinalis, 240 h; for pest or weed control at 500 g/ha: 500 g ai/ha; for pest or weed control at 2000 g/ha: 2000 g ai/ha
In short: (§2)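 Both application timings were run together: directed soil spray over freshly planted seeds in sandy loam, and runoff spray onto 2–10 cm seedlings. Evaluation after ~10 days in greenhouse used a 0–100 visual scale versus untreated controls.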

[3] = system: eastern black nightshade; assay: Test C pre-/postemergence herbicide test; format: in vivo, Solanum ptycanthum
In short: as §1

[4] = system: common (oilseed) sunflower; assay: Test C pre-/postemergence herbicide test; format: in vivo, Helianthus annuus
In short: as §1

[5] = system: Surinam grass; assay: Test C pre-/postemergence herbicide test; format: in vivo, Urochloa decumbens
In short: as §1

[6] = system: johnsongrass; assay: Test C pre-/postemergence herbicide test; format: in vivo, Sorghum halepense
In short: as §1

[7] = system: soybean; assay: Test C pre-/postemergence herbicide test; format: in vivo, Glycine max
In short: as §1

[8] = system: goosegrass; assay: Test C pre-/postemergence herbicide test; format: in vivo, Eleusine indica
In short: as §1

[9] = system: velvetleaf; assay: Test A pre-/postemergence herbicide test; format: in vivo, Abutilon theophrasti; settings: Abutilon theophrasti, 240 h; for pest or weed control at 500 g/ha: 500 g ai/ha; for pest or weed control at 2000 g/ha: 2000 g ai/ha
In short: as §2

[10] = system: rice; assay: Test B pre-/postemergence herbicide test; format: in vivo, Oryza sativa; settings: Preemergence, 500 g ai/ha; scale 0 to 100
In short: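 Greenhouse pot assay with simultaneous preemergence (treated seed) and postemergence (2–18 cm seedlings) applications of surfactant-containing, non-phytotoxic solvent formulations. Response scored visually 13–15 days later on a 0–100 scale, 100 meaning complete control.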

[11] = Preemergence, 500 g ai/ha, scale 0 to 100, 0 no effect, 100 complete control
[12] = post-emergence, Postemergence, 0 to 100 scale, 0 no effect, 100 complete control, read-out: Plant response rating, Crabgrass, Large
[13] = post-emergence, Postemergence, 0 to 100 scale, 0 no effect, 100 complete control, read-out: Plant response rating, Velvetleaf

CCNC(=O)c1ccc(F)c(NC(=O)c2cc(C(C)(C)C)nn2CC)c1 [Compound 2, 3-(1,1-dimethylethyl)-1-ethyl-N-[5-[(ethylamino)carbonyl]-2-fluorophenyl]-1H-pyrazole-5-carboxamide]
Plant response rating (0 = no effect, 100 = complete control), Cupgrass, Woolly ([1]; 62 g ai/ha, preemergence): 40 | pest or weed control at 125 g/ha ([1]; Eriochloa villosa, pre-emergence, 312 h, 125 g ai/ha, scale 0-100, read-out: Plant response rating, Cupgrass, Woolly): 60% | pest or weed control at 250 g/ha ([1]; Eriochloa villosa, pre-emergence, 312 h, 250 g ai/ha, scale 0 to 100 (0 no effect, 100 complete control), visual, 12 to 14 days, read-out: Plant response rating, Cupgrass, Woolly): 60% | Cupgrass, Woolly plant response rating [1, 11]: 80 | pest or weed control at 500 g/ha [2, 12]: 85% | pest or weed control at 2000 g/ha [2, 12]: 100% | pest or weed control at 500 g/ha ([2]; pre-emergence, Preemergence, visual rating, 0 to 100 scale (0 no effect, 100 complete control), read-out: Crabgrass, Large plant response rating): 100% | pest or weed control at 2000 g/ha ([2]; pre-emergence, Preemergence, 0 to 100 scale, 0 no effect, 100 complete control, read-out: Crabgrass, Large plant response rating): 100% | Plant response rating (0 = no effect, 100 = complete control), Nightshade ([3]; 62 g ai/ha, preemergence): 100 | Nightshade plant response rating [3, 11]: 100 | pest or weed control at 250 g/ha ([3]; pre-emergence, 250 g ai/ha, scale 0 to 100 (0 no effect, 100 complete control), visual, 12 to 14 days, read-out: Plant response rating, Nightshade): 100% | Plant response rating (0 = no effect, 100 = complete control), Sunflower ([4]; 62 g ai/ha, preemergence): 0 | pest or weed control at 250 g/ha ([4]; Helianthus annuus, pre-emergence, 250 g ai/ha, scale 0 to 100 (0 no effect, 100 complete control), visual, 12 to 14 days, read-out: Plant response rating, Sunflower): 0% | Sunflower plant response rating [4, 11]: 0 | Plant response rating (0 = no effect, 100 = complete control), Surinam Grass ([5]; 62 g ai/ha, preemergence): 90 | Surinam Grass plant response rating [5, 11]: 100 | pest or weed control at 250 g/ha ([5]; Urochloa decumbens, pre-emergence, 312 h, 250 g ai/ha, scale 0 to 100 (0 no effect, 100 complete control), visual, 12 to 14 days, read-out: Plant response rating, Surinam Grass): 100% | Plant response rating (0 = no effect, 100 = complete control), Johnsongrass ([6]; 62 g ai/ha, preemergence): 70 | Johnsongrass plant response rating [6, 11]: 100 | pest or weed control at 125 g/ha ([6]; Sorghum halepense, pre-emergence, 125 g ai/ha, scale 0-100, read-out: Plant response rating, Johnsongrass): 90% | pest or weed control at 250 g/ha ([6]; Sorghum halepense, pre-emergence, 250 g ai/ha, scale 0 to 100 (0 no effect, 100 complete control), visual, 12 to 14 days, read-out: Plant response rating, Johnsongrass): 100% | Plant response rating (0 = no effect, 100 = complete control), Soybean ([7]; 62 g ai/ha, preemergence): 30 | plant injury at 250 g/ha ([7]; Glycine max, pre-emergence, 250 g ai/ha, scale 0 to 100 (0 no effect, 100 complete control), visual, 12 to 14 days, read-out: Plant response rating, Soybean): 100% | Soybean plant response rating [7, 11]: 100 | Plant response rating (0 = no effect, 100 = complete control), Goosegrass ([8]; 62 g ai/ha, preemergence): 90 | pest or weed control at 125 g/ha ([8]; Eleusine indica, pre-emergence, 312 h, 125 g ai/ha, scale 0-100, read-out: Plant response rating, Goosegrass): 95% | pest or weed control at 250 g/ha ([8]; Eleusine indica, pre-emergence, 312 h, 250 g ai/ha, scale 0 to 100 (0 no effect, 100 complete control), visual, 12 to 14 days, read-out: Plant response rating, Goosegrass): 95% | Goosegrass plant response rating [8, 11]: 100 | pest or weed control at 500 g/ha [9, 13]: 40% | pest or weed control at 2000 g/ha [9, 13]: 75% | pest or weed control at 500 g/ha ([9]; pre-emergence, Preemergence, visual rating, 0 to 100 scale (0 no effect, 100 complete control), read-out: Velvetleaf plant response rating): 100% | pest or weed control at 2000 g/ha ([9]; pre-emergence, Preemergence, 0 to 100 scale, 0 no effect, 100 complete control, read-out: Velvetleaf plant response rating): 100% | Rice plant response rating [10]: 90
